Results on 68 sequences are retold here after the supplement of paper PMC11208160.
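Further: IS621 bridge recombinase in Escherichia coli cells against a fixed T5 target plasmid.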

The nature of the series: recombinant UMI read abundance after kanamycin selection (control-corrected) (log10(CPM+1)); higher = more efficient recombination; extreme values may be limits of the assay; sequences stand for … in AGTGCAGAGAAAATCGGCCAGTTTTCTCTGCCTGCAGTCCGCATGCCGTGGGACCCCTTGGGTTCTAACCTGTTGCCTAGATTTATGCAGCGGACTGCCTTTCTCCCAAAGTGATAAACCGG…AGGTTGGTTTCACT; site = the 11-nt donor. Summed up: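 Counts of recombinant UMIs were reported as log10(CPM+1). Before that, they were converted to CPM, averaged over replicates and scaled using control-derived factors. They came from PCR across the donor–target junction after Escherichia coli carrying the pair library and target plasmid was plated on IPTG (0.07 mM) plus kanamycin, or unselected, in two replicates each.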
“CAGTATCCATGGACCGGTTTTCCCGGTAATCCGTATTTGTT (site CAGTATCCTAA)”: the “recombinant UMI read abundance (log10)” value worked out at 1.87.

In the case of “CAGTATCCATGGACCGGTTTTCCCGGTAATCCGTATTTGTT (site CGGAATCCTAA)”, the “recombinant UMI read abundance (log10)” value was 0.00316.

For the sequence “CAGTCGACATGGACCGGTTTTCCCGGTAATCCGTATTTGGA (site CAGTCGACTAC)”, the “recombinant UMI read abundance (log10)” value is 0.0073.

With “CAGTCGACATGGACCGGTTTTCCCGGTAATCCGTATTTGGA (site CAGTCGACTCC)”, the “recombinant UMI read abundance (log10)” value came to 0.0138.

On to “CAGTCGACATGGACCGGTTTTCCCGGTAATCCGTATTTGGA (site CAGTCGACTGC)”, for which the “recombinant UMI read abundance (log10)” value worked out at 0.00544.

Take “CAGTCGACATGGACCGGTTTTCCCGGTAATCCGTATTTGGA (site CAGTCGACTTC)”: the “recombinant UMI read abundance (log10)” value was determined as 0.0121.

“CAGTCGACATGGACCGGTTTTCCCGGTAATCCGTATTTGGG (site AAGTCGACTCC)”: the “recombinant UMI read abundance (log10)” value was 0.0145.

Consider “CAGTCGACATGGACCGGTTTTCCCGGTAATCCGTATTTGGG (site CAATCGACTCC)”, for which the “recombinant UMI read abundance (log10)” value was determined as 0.0099.

As for “CAGTCGACATGGACCGGTTTTCCCGGTAATCCGTATTTGGG (site CACTCGACTCC)”, the “recombinant UMI read abundance (log10)” value was determined as 0.0212.

Turning to “CAGTCGACATGGACCGGTTTTCCCGGTAATCCGTATTTGGG (site CAGACGACTCC)”, the “recombinant UMI read abundance (log10)” value was found to be 0.083.

Consider “CAGTCGACATGGACCGGTTTTCCCGGTAATCCGTATTTGGG (site CAGCCGACTCC)”, for which the “recombinant UMI read abundance (log10)” value was 0.00881.

Turning to “CAGTCGACATGGACCGGTTTTCCCGGTAATCCGTATTTGGG (site CAGGCGACTCC)”, the “recombinant UMI read abundance (log10)” value amounted to 0.

As for “CAGTCGACATGGACCGGTTTTCCCGGTAATCCGTATTTGGG (site CAGTAGACTCC)”, the “recombinant UMI read abundance (log10)” value stood at 0.34.

As to “CAGTCGACATGGACCGGTTTTCCCGGTAATCCGTATTTGGG (site CAGTCAACTCC)”, the “recombinant UMI read abundance (log10)” value worked out at 0.0265.

Take “CAGTCGACATGGACCGGTTTTCCCGGTAATCCGTATTTGGG (site CAGTCCACTCC)”: the “recombinant UMI read abundance (log10)” value is 0.0168.

For the sequence “CAGTCGACATGGACCGGTTTTCCCGGTAATCCGTATTTGGG (site CAGTCGACTAC)”, the “recombinant UMI read abundance (log10)” value was determined as 0.0109.

As to “CAGTCGACATGGACCGGTTTTCCCGGTAATCCGTATTTGGG (site CAGTCGACTCA)”, the “recombinant UMI read abundance (log10)” value came to 0.00973.

For “CAGTCGACATGGACCGGTTTTCCCGGTAATCCGTATTTGGG (site CAGTCGACTCC)”, the “recombinant UMI read abundance (log10)” value was found to be 0.297.

“CAGTCGACATGGACCGGTTTTCCCGGTAATCCGTATTTGGG (site CAGTCGACTCG)”: the “recombinant UMI read abundance (log10)” value came to 0.

Consider “CAGTCGACATGGACCGGTTTTCCCGGTAATCCGTATTTGGG (site CAGTCGACTCT)”, for which the “recombinant UMI read abundance (log10)” value stood at 0.314.

For “CAGTCGACATGGACCGGTTTTCCCGGTAATCCGTATTTGGG (site CAGTCGACTGC)”, the “recombinant UMI read abundance (log10)” value was determined as 0.

With “CAGTCGACATGGACCGGTTTTCCCGGTAATCCGTATTTGGG (site CAGTCGACTTC)”, the “recombinant UMI read abundance (log10)” value came out at 0.00419.

Turning to “CAGTCGACATGGACCGGTTTTCCCGGTAATCCGTATTTGGG (site CAGTCGCCTCC)”, the “recombinant UMI read abundance (log10)” value stood at 0.0239.

In the case of “CAGTCGACATGGACCGGTTTTCCCGGTAATCCGTATTTGGG (site CAGTCGGCTCC)”, the “recombinant UMI read abundance (log10)” value was found to be 0.0315.

For “CAGTCGACATGGACCGGTTTTCCCGGTAATCCGTATTTGGG (site CAGTCGTCTCC)”, the “recombinant UMI read abundance (log10)” value turned out to be 0.151.

On to “CAGTCGACATGGACCGGTTTTCCCGGTAATCCGTATTTGGG (site CAGTCTACTCC)”, for which the “recombinant UMI read abundance (log10)” value worked out at 0.0277.

Regarding “CAGTCGACATGGACCGGTTTTCCCGGTAATCCGTATTTGGG (site CAGTGGACTCC)”, the “recombinant UMI read abundance (log10)” value is 0.0181.

As for “CAGTCGACATGGACCGGTTTTCCCGGTAATCCGTATTTGGG (site CAGTTGACTCC)”, the “recombinant UMI read abundance (log10)” value worked out at 0.0173.

For the sequence “CAGTCGACATGGACCGGTTTTCCCGGTAATCCGTATTTGGG (site CATTCGACTCC)”, the “recombinant UMI read abundance (log10)” value was 0.0119.

In the case of “CAGTCGACATGGACCGGTTTTCCCGGTAATCCGTATTTGGG (site CCGTCGACTCC)”, the “recombinant UMI read abundance (log10)” value was 0.00307.

Regarding “CAGTCGACATGGACCGGTTTTCCCGGTAATCCGTATTTGGG (site CGGTCGACTCC)”, the “recombinant UMI read abundance (log10)” value came to 0.0115.

On to “CAGTCGACATGGACCGGTTTTCCCGGTAATCCGTATTTGGG (site CTGTCGACTCC)”, for which the “recombinant UMI read abundance (log10)” value was determined as 0.0261.

For the sequence “CAGTCGACATGGACCGGTTTTCCCGGTAATCCGTATTTGGG (site GAGTCGACTCC)”, the “recombinant UMI read abundance (log10)” value is 0.0417.

As to “CAGTCGACATGGACCGGTTTTCCCGGTAATCCGTATTTGGG (site TAGTCGACTCC)”, the “recombinant UMI read abundance (log10)” value was determined as 0.01.

For “CAGTCTACATGGACCGGTTTTCCCGGTAATCCGTATTTGGG (site CAGTCAACTCC)”, the “recombinant UMI read abundance (log10)” value was determined as 0.0237.

For “CAGTCTACATGGACCGGTTTTCCCGGTAATCCGTATTTGGG (site CAGTCCACTCC)”, the “recombinant UMI read abundance (log10)” value worked out at 0.0106.

Turning to “CAGTCTACATGGACCGGTTTTCCCGGTAATCCGTATTTGGG (site CAGTCGACTCC)”, the “recombinant UMI read abundance (log10)” value was 0.00653.

As for “CAGTCTACATGGACCGGTTTTCCCGGTAATCCGTATTTGGG (site CAGTCTACTCC)”, the “recombinant UMI read abundance (log10)” value stood at 0.0109.

As for “CAGTTATCATGGACCGGTTTTCCCGGTAATCCGTATTTGTG (site CAGTTATCTCA)”, the “recombinant UMI read abundance (log10)” value was 3.18.

Turning to “CAGTTGGCATGGACCGGTTTTCCCGGTAATCCGTATTTGTG (site CAGTTGGCTCA)”, the “recombinant UMI read abundance (log10)” value is 1.47.

Turning to “CATAACGCATGGACCGGTTTTCCCGGTAATCCGTATTTGGG (site CATAACGCTCC)”, the “recombinant UMI read abundance (log10)” value was determined as 0.802.

Take “CATAACGCATGGACCGGTTTTCCCGGTAATCCGTATTTGTG (site TGAGGGCCTGC)”: the “recombinant UMI read abundance (log10)” value was 0.

Turning to “CATAGCCCATGGACCGGTTTTCCCGGTAATCCGTATTTGCC (site CATAGCCCTGG)”, the “recombinant UMI read abundance (log10)” value was 0.

For the sequence “CATAGGGCATGGACCGGTTTTCCCGGTAATCCGTATTTGTC (site CATAGGGCTGA)”, the “recombinant UMI read abundance (log10)” value is 2.5.

As to “CATATCCCATGGACCGGTTTTCCCGGTAATCCGTATTTGCG (site CATATCCCTCG)”, the “recombinant UMI read abundance (log10)” value turned out to be 0.847.

As for “CATATCTCATGGACCGGTTTTCCCGGTAATCCGTATTTGAC (site CATATCTCTGT)”, the “recombinant UMI read abundance (log10)” value came out at 2.52.

On to “CATATTCCATGGACCGGTTTTCCCGGTAATCCGTATTTGCT (site CATATTCCTAG)”, for which the “recombinant UMI read abundance (log10)” value was found to be 0.

Regarding “CATCAGTCATGGACCGGTTTTCCCGGTAATCCGTATTTGAT (site CATCAGTCTAT)”, the “recombinant UMI read abundance (log10)” value is 2.04.

“CATCATGCATGGACCGGTTTTCCCGGTAATCCGTATTTGTT (site CATCATGCTAA)”: the “recombinant UMI read abundance (log10)” value stood at 1.58.

For “CATCCGGCATGGACCGGTTTTCCCGGTAATCCGTATTTGTC (site CATCCGGCTGA)”, the “recombinant UMI read abundance (log10)” value was determined as 0.293.

On to “CATCGTTCATGGACCGGTTTTCCCGGTAATCCGTATTTGCA (site CATCGTTCTTG)”, for which the “recombinant UMI read abundance (log10)” value came out at 2.25.

For “CATCTCGCATGGACCGGTTTTCCCGGTAATCCGTATTTGCA (site CATCTCGCTTG)”, the “recombinant UMI read abundance (log10)” value was found to be 0.985.

For “CATCTGCCATGGACCGGTTTTCCCGGTAATCCGTATTTGCC (site CATCTGCCTGG)”, the “recombinant UMI read abundance (log10)” value was found to be 0.

Turning to “CATGCAGCATGGACCGGTTTTCCCGGTAATCCGTATTTGAG (site CATGCAGCTCT)”, the “recombinant UMI read abundance (log10)” value is 1.51.

As to “CATGCCCCATGGACCGGTTTTCCCGGTAATCCGTATTTGGG (site CATGCCCCTCC)”, the “recombinant UMI read abundance (log10)” value stood at 0.00831.

Regarding “CATGGAACATGGACCGGTTTTCCCGGTAATCCGTATTTGTT (site CATGGAACTAA)”, the “recombinant UMI read abundance (log10)” value worked out at 1.85.

Consider “CATGGAACATGGACCGGTTTTCCCGGTAATCCGTATTTGTT (site CCTGGAACTAA)”, for which the “recombinant UMI read abundance (log10)” value is 0.00373.

For “CATGGAACATGGACCGGTTTTCCCGGTAATCCGTATTTGTT (site CGTGGAACTAA)”, the “recombinant UMI read abundance (log10)” value came out at 0.0146.

Consider “CATGGAACATGGACCGGTTTTCCCGGTAATCCGTATTTGTT (site CTTGGAACTAA)”, for which the “recombinant UMI read abundance (log10)” value was 0.00575.

Take “CATGGACCATGGACCGGTTTTCCCGGTAATCCGTATTTGGG (site CATGGACCTCC)”: the “recombinant UMI read abundance (log10)” value turned out to be 0.0171.

Take “CATGTAACATGGACCGGTTTTCCCGGTAATCCGTATTTGGG (site CATGTAACTCC)”: the “recombinant UMI read abundance (log10)” value came out at 0.209.

With “CATTAAACATGGACCGGTTTTCCCGGTAATCCGTATTTGCC (site CATTAAACTGG)”, the “recombinant UMI read abundance (log10)” value worked out at 1.51.

In the case of “CATTACCCATGGACCGGTTTTCCCGGTAATCCGTATTTGCC (site CATTACCCTGG)”, the “recombinant UMI read abundance (log10)” value amounted to 0.

Consider “CATTAGACATGGACCGGTTTTCCCGGTAATCCGTATTTGAG (site CATTAGACTCT)”, for which the “recombinant UMI read abundance (log10)” value turned out to be 1.89.

Regarding “CATTAGACATGGACCGGTTTTCCCGGTAATCCGTATTTGAG (site CCTTAGACTCT)”, the “recombinant UMI read abundance (log10)” value turned out to be 0.769.

Take “CATTAGACATGGACCGGTTTTCCCGGTAATCCGTATTTGAG (site CGTTAGACTCT)”: the “recombinant UMI read abundance (log10)” value amounted to 0.492.

Consider “CATTAGACATGGACCGGTTTTCCCGGTAATCCGTATTTGAG (site CTTTAGACTCT)”, for which the “recombinant UMI read abundance (log10)” value is 0.0129.

Regarding “CATTAGGCATGGACCGGTTTTCCCGGTAATCCGTATTTGCT (site CATTAGGCTAG)”, the “recombinant UMI read abundance (log10)” value was determined as 1.54.
